In the supplement of paper PMC10307832:

Key:
[1] = compound: CCOC(=O)CCNc1cc(N2CCc3ccccc3CC2)nc(-c2ccccn2)n1 [GSK-J4] + CC1(C)CCC(c2ccc(Cl)cc2)=C(CN2CCN(c3ccc(C(=O)NS(=O)(=O)c4ccc(N[C@H](CCN5CCOCC5)CSc5ccccc5)c(S(=O)(=O)C(F)(F)F)c4)cc3)CC2)C1 [Navitoclax] (partner 0.5 µM); assay: relative viability (nuclei count vs DMSO), 5 days (fraction); higher = more cells survive
How it was run: (§1)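 Dosing by pin tool came one day after lung cancer cell lines were seeded in 1536-well plates, using either one drug or a fixed anchor-drug dose plus five library-drug doses (not always all listed) in √10 steps. After 5 days, nuclei were counted on 4× images. Relative viability is treated-well nuclei count divided by vehicle-well nuclei count, and values are medians of duplicate plates.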

[2] = compound: CN1CCC(CC1)OC2=CC(=C(C=C2)NC3=NC=C4C(=N3)N(C(=O)N4C)C5CCCC5)OC [AZ3146] + COc1cc2c(Oc3ccc(NC(=O)C4(C(=O)Nc5ccc(F)cc5)CC4)cc3F)ccnc2cc1OCCCN1CCOCC1 [Foretinib] (partner 0.25 µM); assay: as above
How it was run: as §1

Row | Cell Line | relative viability ([1]; first compound 0.5 µM) | relative viability ([1]; first compound 1.581 µM) | relative viability ([1]; first compound 5 µM) | relative viability ([1]; first compound 15.81 µM) | relative viability ([1]; first compound 50 µM) | relative viability ([2]; first compound 0.08 µM) | relative viability ([2]; first compound 0.253 µM) | relative viability ([2]; first compound 0.8 µM) | relative viability ([2]; first compound 2.53 µM) | relative viability ([2]; first compound 8 µM)
1 | LOU-NH91 | 0.733 | 0.743 | 0.577 | 0.571 | 0.764 | 0.967 | 0.902 | 1.01 | 0.931 | 0.948
2 | EMC-BAC-2 | 1.17 | 1.07 | 1.24 | 1.04 | 1.13 | 1.06 | 1.04 | 1.18 | 1.1 | 1.03
3 | NCI-H1355 | 0.913 | 0.793 | 1.18 | 0.815 | 0.924 | 0.974 | 0.968 | 0.936 | 1.04 | 1.05
4 | ABC-1 | – | – | – | – | – | 0.98 | 1.01 | 1.29 | 1.1 | 0.709
5 | NCI-H727 | 0.394 | – | 0.648 | 0.404 | 0.208 | 0.952 | 0.967 | 0.975 | 0.981 | 0.86
6 | NCI-H1666 | 1.08 | – | 1.19 | 0.918 | 0.472 | 0.964 | 0.994 | 1.02 | 1.05 | 0.839
7 | NCI-H2126 | 0.823 | 0.842 | 0.849 | 0.72 | 0.709 | 0.911 | 1.31 | 1.04 | 1.25 | 1.29
8 | NCI-H1793 | 0.389 | 0.473 | 0.379 | 0.307 | 0.273 | 0.672 | 0.699 | 0.755 | 0.686 | 0.316
9 | LCLC-97TM1 | – | – | 0.43 | 0.178 | 0.307 | 0.936 | 0.96 | 0.879 | 0.942 | 0.806
10 | COR-L23 | 0.886 | 1.02 | – | 0.929 | 0.956 | 0.979 | 1.08 | 0.877 | 0.987 | 0.787
11 | NCI-H1563 | – | – | – | – | – | 0.901 | 1.07 | 0.903 | 0.901 | 0.864
12 | HARA | 1.16 | 0.827 | – | 1.15 | 0.916 | 0.823 | 0.858 | 0.895 | 0.895 | 0.197
13 | NCI-H2023 | 0.921 | 0.976 | 1.08 | 0.991 | 0.915 | 0.783 | 0.788 | 0.774 | 0.949 | 0.227
14 | NCI-H1792 | 0.621 | 0.571 | 0.574 | 0.567 | 0.514 | – | – | – | – | –
15 | LC-2-ad | 0.464 | 0.389 | 0.407 | 0.374 | 0.41 | 0.735 | 0.905 | 1.06 | 0.935 | 0.878
16 | LXF-289 | 0.864 | 0.838 | 0.955 | 0.933 | 0.867 | 0.905 | 0.989 | 0.952 | 0.978 | 0.914
17 | EBC-1 | 0.367 | 0.4 | 0.356 | 0.4 | 0.264 | 0.112 | 0.0981 | 0.119 | 0.111 | 0.117
18 | NCI-H2347 | 0.7 | 0.746 | 0.774 | 0.829 | 0.608 | 0.89 | 0.934 | 0.501 | 1.1 | 1.07
19 | RERF-LC-KJ | 0.756 | 1.01 | 0.881 | 0.795 | 0.763 | 0.851 | 0.862 | 0.895 | 0.942 | 0.844

Row | Cell Line | relative viability ([1]; first compound 0.5 µM) | relative viability ([1]; first compound 1.581 µM) | relative viability ([1]; first compound 5 µM) | relative viability ([1]; first compound 15.81 µM) | relative viability ([1]; first compound 50 µM) | relative viability ([2]; first compound 0.08 µM) | relative viability ([2]; first compound 0.253 µM) | relative viability ([2]; first compound 0.8 µM) | relative viability ([2]; first compound 2.53 µM) | relative viability ([2]; first compound 8 µM)
20 | NCI-H1650 | 1.07 | 0.916 | 1.33 | 0.995 | 0.565 | 1.29 | 1.49 | 0.879 | 1 | 0.604
21 | NCI-H596 | 1.02 | 0.955 | 1.1 | 0.846 | 0.977 | 0.793 | 0.714 | 0.999 | 0.691 | 0.881
22 | NCI-H1734 | 0.83 | 0.736 | 0.694 | 0.734 | 0.632 | 0.811 | 0.859 | 0.885 | 0.853 | 0.705
23 | NCI-H1703 | 0.944 | 0.963 | 0.776 | 1.08 | 1.25 | 0.285 | 0.351 | 0.329 | 0.343 | 0.272
24 | NCI-H1915 | 0.759 | 0.713 | 0.747 | 0.715 | 0.765 | 0.92 | 1.12 | 1.1 | 1.22 | 1.16
25 | NCI-H838 | 1.13 | 1.07 | – | 1.08 | 1.14 | 1.06 | 1.09 | 0.954 | 1.03 | 0.788
26 | HCC-15 | 0.692 | 0.701 | 0.779 | 0.566 | 0.444 | 1.1 | 0.981 | 1.06 | 1.08 | 0.791
27 | NCI-H650 | – | – | – | – | – | 0.812 | 0.996 | 0.961 | 1.03 | 1.18
28 | NCI-H1651 | 0.999 | 0.942 | 1.03 | 1.05 | 0.958 | 0.729 | 0.726 | 0.809 | 0.849 | 0.836
29 | NCI-H2405 | 0.835 | 0.848 | – | 0.952 | 0.928 | 1.02 | 1.03 | 1.13 | 1.1 | 1.09
30 | A549 | 1.08 | 1.15 | 1.24 | 1.24 | 1.2 | 1.08 | 0.952 | 0.743 | 0.177 | 0.063
31 | LU99A | 0.788 | 0.746 | 0.852 | 0.814 | 0.633 | 0.699 | 0.87 | 0.782 | 0.849 | 0.869
32 | H3255 | 0.474 | 0.494 | 0.543 | 0.368 | 0.444 | 0.773 | 0.764 | 0.927 | 1.04 | 0.922
33 | NCI-H1993 | 1.14 | 0.951 | 1.13 | 0.866 | 0.681 | 0.866 | 0.776 | 0.771 | 0.834 | 0.834
34 | NCI-H358 | – | – | – | – | – | 0.608 | 0.637 | 0.554 | 0.504 | 0.212
35 | NCI-H1623 | – | – | – | – | – | 0.797 | 0.757 | 0.855 | 0.955 | 0.899
36 | SW 900 | – | – | – | – | – | 0.899 | 0.761 | 0.811 | 0.893 | 0.759
37 | LCLC-103H | – | – | – | – | – | 0.749 | 0.81 | 0.749 | 0.966 | 0.657
